The supplement of paper PMC10307832

Assays:
Test in all cases: relative viability (nuclei count vs DMSO), 5 days (fraction); higher = more cells survive
EKVX = test system: EKVX
In short: (§1)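 For relative viability, nuclei counts in treated wells were divided by those in vehicle wells. Lung cancer cell lines had been pin-tool dosed in 1536-well plates the day after seeding and cultured for 5 days, then fixed and stained in one step (final 0.05% Triton X-100, 1% formaldehyde, 1 ug/ml Hoechst) and imaged at 4×. Doses were one drug alone or a fixed anchor-drug dose plus five library-drug doses (not always all listed) in √10 steps, and values are duplicate-plate medians.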

COR-L 105 = test system: COR-L 105
In short: as §1

HCC-366 = test system: HCC-366
In short: as §1

NCI-H1437 = test system: NCI-H1437
In short: as §1

BEN = test system: BEN
In short: as §1

LOU-NH91 = test system: LOU-NH91
In short: as §1

PC-14 = test system: PC-14
In short: as §1

HARA = test system: HARA
In short: as §1

NCI-H441 = test system: NCI-H441
In short: as §1

NCI-H460 = test system: NCI-H460
In short: as §1

NCI-H1650 = test system: NCI-H1650
In short: as §1

CAL-12T = test system: CAL-12T
In short: as §1

NCI-H1666 = test system: NCI-H1666
In short: as §1

NCI-H661 = test system: NCI-H661
In short: as §1

NCI-H2009 = test system: NCI-H2009
In short: as §1

201T = test system: 201T
In short: as §1

NCI-H3122 = test system: NCI-H3122
In short: as §1

LK-2 = test system: LK-2
In short: as §1

NCI-H2170 = test system: NCI-H2170
In short: as §1

SW 900 = test system: SW 900
In short: as §1

For `CC(=O)O[C@@]12CO[C@@H]1C[C@H](O)[C@@]1(C)C(=O)[C@H](O)C3=C(C)[C@@H](OC(=O)[C@H](O)[C@@H](NC(=O)OC(C)(C)C)c4ccccc4)C[C@@](O)([C@@H](OC(=O)c4ccccc4)[C@H]21)C3(C)C` [Docetaxel] + Nc1nc2[nH]cc(CCc3ccc(C(=O)N[C@@H](CCC(=O)O)C(=O)O)cc3)c2c(=O)[nH]1 [Pemetrexed] (partner 0.2 µM), the relative viability (EKVX; first compound 0.0002 µM) was 0.377, the relative viability (EKVX; first compound 0.000632 µM) was 0.392 and the relative viability (EKVX; first compound 0.002 µM) was 0.288. It also gave a relative viability (EKVX; first compound 0.006325 µM) of 0.209, a relative viability (EKVX; first compound 0.02 µM) of 0.193 and a relative viability (COR-L 105; first compound 0.0002 µM) of 1.06. It also gave a relative viability (COR-L 105; first compound 0.000632 µM) of 1.12, a relative viability (COR-L 105; first compound 0.002 µM) of 0.656 and a relative viability (COR-L 105; first compound 0.006325 µM) of 0.492. For the same molecule, the relative viability (COR-L 105; first compound 0.02 µM) was 0.388, the relative viability (HCC-366; first compound 0.0002 µM) was 0.162 and the relative viability (HCC-366; first compound 0.000632 µM) was 0.16. For the same molecule, the relative viability (HCC-366; first compound 0.002 µM) was 0.0677, the relative viability (HCC-366; first compound 0.006325 µM) was 0.0361 and the relative viability (HCC-366; first compound 0.02 µM) was 0.0202. It also gave a relative viability (NCI-H1437; first compound 0.0002 µM) of 0.3, a relative viability (NCI-H1437; first compound 0.000632 µM) of 0.361 and a relative viability (NCI-H1437; first compound 0.002 µM) of 0.32. For the same molecule, the relative viability (NCI-H1437; first compound 0.006325 µM) was 0.288, the relative viability (NCI-H1437; first compound 0.02 µM) was 0.213 and the relative viability (BEN; first compound 0.0002 µM) was 0.68. The relative viability (BEN; first compound 0.000632 µM) was 0.795, the relative viability (BEN; first compound 0.002 µM) was 0.442 and the relative viability (BEN; first compound 0.006325 µM) was 0.449. The relative viability (BEN; first compound 0.02 µM) was 0.325, the relative viability (LOU-NH91; first compound 0.0002 µM) was 0.373 and the relative viability (LOU-NH91; first compound 0.000632 µM) was 0.367. For the same molecule, the relative viability (LOU-NH91; first compound 0.002 µM) was 0.311, the relative viability (LOU-NH91; first compound 0.006325 µM) was 0.338 and the relative viability (LOU-NH91; first compound 0.02 µM) was 0.312. It also gave a relative viability (PC-14; first compound 0.0002 µM) of 0.13, a relative viability (PC-14; first compound 0.000632 µM) of 0.144 and a relative viability (PC-14; first compound 0.002 µM) of 0.129. For the same molecule, the relative viability (PC-14; first compound 0.006325 µM) was 0.0511, the relative viability (PC-14; first compound 0.02 µM) was 0.0414 and the relative viability (HARA; first compound 0.0002 µM) was 0.196. For the same molecule, the relative viability (HARA; first compound 0.000632 µM) was 0.247, the relative viability (HARA; first compound 0.002 µM) was 0.247 and the relative viability (HARA; first compound 0.006325 µM) was 0.188. The relative viability (HARA; first compound 0.02 µM) was 0.142, the relative viability (NCI-H441; first compound 0.000632 µM) was 0.253 and the relative viability (NCI-H441; first compound 0.002 µM) was 0.206. The relative viability (NCI-H441; first compound 0.006325 µM) was 0.198, the relative viability (NCI-H460; first compound 0.0002 µM) was 0.0551 and the relative viability (NCI-H460; first compound 0.000632 µM) was 0.0652. The relative viability (NCI-H460; first compound 0.002 µM) was 0.0375, the relative viability (NCI-H460; first compound 0.006325 µM) was 0.0299 and the relative viability (NCI-H460; first compound 0.02 µM) was 0.021. It also gave a relative viability (NCI-H1650; first compound 0.0002 µM) of 0.387, a relative viability (NCI-H1650; first compound 0.000632 µM) of 0.412 and a relative viability (NCI-H1650; first compound 0.002 µM) of 0.28. It also gave a relative viability (NCI-H1650; first compound 0.006325 µM) of 0.263, a relative viability (NCI-H1650; first compound 0.02 µM) of 0.158 and a relative viability (CAL-12T; first compound 0.0002 µM) of 1.08. For the same molecule, the relative viability (CAL-12T; first compound 0.000632 µM) was 0.83, the relative viability (CAL-12T; first compound 0.002 µM) was 0.241 and the relative viability (CAL-12T; first compound 0.006325 µM) was 0.272. The relative viability (CAL-12T; first compound 0.02 µM) was 0.19, the relative viability (NCI-H1666; first compound 0.0002 µM) was 0.946 and the relative viability (NCI-H1666; first compound 0.000632 µM) was 0.808. For the same molecule, the relative viability (NCI-H1666; first compound 0.002 µM) was 0.801, the relative viability (NCI-H1666; first compound 0.006325 µM) was 0.858 and the relative viability (NCI-H1666; first compound 0.02 µM) was 0.542. For the same molecule, the relative viability (NCI-H661; first compound 0.0002 µM) was 0.947, the relative viability (NCI-H661; first compound 0.000632 µM) was 0.944 and the relative viability (NCI-H661; first compound 0.002 µM) was 0.799. For the same molecule, the relative viability (NCI-H661; first compound 0.006325 µM) was 0.572, the relative viability (NCI-H661; first compound 0.02 µM) was 0.366 and the relative viability (NCI-H2009; first compound 0.0002 µM) was 0.946. The relative viability (NCI-H2009; first compound 0.000632 µM) was 1.03, the relative viability (NCI-H2009; first compound 0.002 µM) was 0.956 and the relative viability (NCI-H2009; first compound 0.006325 µM) was 0.733. It also gave a relative viability (NCI-H2009; first compound 0.02 µM) of 0.27, a relative viability (201T; first compound 0.0002 µM) of 0.36 and a relative viability (201T; first compound 0.000632 µM) of 0.32. It also gave a relative viability (201T; first compound 0.002 µM) of 0.312, a relative viability (201T; first compound 0.006325 µM) of 0.424 and a relative viability (201T; first compound 0.02 µM) of 0.255. For the same molecule, the relative viability (NCI-H3122; first compound 0.0002 µM) was 0.185, the relative viability (NCI-H3122; first compound 0.000632 µM) was 0.196 and the relative viability (NCI-H3122; first compound 0.002 µM) was 0.193. The relative viability (NCI-H3122; first compound 0.006325 µM) was 0.14, the relative viability (NCI-H3122; first compound 0.02 µM) was 0.111 and the relative viability (LK-2; first compound 0.0002 µM) was 0.172. For the same molecule, the relative viability (LK-2; first compound 0.000632 µM) was 0.217, the relative viability (LK-2; first compound 0.002 µM) was 0.163 and the relative viability (LK-2; first compound 0.006325 µM) was 0.119. For the same molecule, the relative viability (LK-2; first compound 0.02 µM) was 0.131, the relative viability (NCI-H2170; first compound 0.0002 µM) was 0.26 and the relative viability (NCI-H2170; first compound 0.000632 µM) was 0.257. For the same molecule, the relative viability (NCI-H2170; first compound 0.002 µM) was 0.251, the relative viability (NCI-H2170; first compound 0.006325 µM) was 0.177 and the relative viability (NCI-H2170; first compound 0.02 µM) was 0.174. It also gave a relative viability (SW 900; first compound 0.0002 µM) of 0.462, a relative viability (SW 900; first compound 0.000632 µM) of 0.332 and a relative viability (SW 900; first compound 0.002 µM) of 0.303. For the same molecule, the relative viability (SW 900; first compound 0.006325 µM) was 0.281 and the relative viability (SW 900; first compound 0.02 µM) was 0.24.
